{"source": "patent US9605026B2", "about": "“Hydrogen-bond surrogate peptides and peptidomimetics for p53 reactivation” (New York University, priority 2013, dated 2017)", "tested_on": "UMSCC47 cells", "assay": "Apoptosis (Annexin V FACS) in UMSCC47 cells", "format": "cell-based, human", "settings": "UMSCC47, 10 μM, 24 hours, vs vehicle", "procedure": "FIG. 6A is a western blot showing total and acetylated p53 levels. UMSCC47 cells were treated with control (vehicle), CH1iB (10 μM), cis-platinum (10 μM), or CH1iB (10 μM) and cis-platinum (10 μM) for 24 hours. Cell lysates were immunoblotted with anti-p53 or anti-acetylated[K382]-p53 antibody. FIG. 6B is a graph of p53 transcriptional activity. UMSCC47 cells were co-transfected with a p53 Firefly luciferase reporter plasmid and a control Renilla luciferase plasmid. After 24 hours, cells were treated with control (vehicle), CH1iB (10 μM), cis-platinum (10 μM), or CH1iB (10 μM) and cis-platinum (10 μM) for 24 hours. Firefly luciferase activity was normalized to Renilla luciferase activity to control for transfection efficiency. […] UMSCC47 cells were treated with control (vehicle), CH1iB (10 μM), cis-platinum (10 μM), or CH1iB (10 μM) and cis-platinum (10 μM) for 24 hours. mRNA expression was determined using qPCR with validated TaqMan assays. […] FACS was used to quantitate Annexin V-positive apoptotic cells (left panel). […] Tumorsphere formation efficiency was calculated as the number of tumorspheres (≧50 μm in diameter) formed in 7 days divided by the original number of cells seeded. Tumorsphere diameter was measured using NIS-Elements software. […]\nCell proliferation was assessed using the MTT reagent (Roche Molecular Biochemicals, Nutley, N.J.) to detect metabolic active cells. […]"}
{"substance": "XELA*RALDQ-NH2 (ELXRALDQ; HBS: 4-pentenoic acid, N-allylalanine; C-terminal amide; CH1iB) [X 4-pentenoic acid, A* N-allylalanine]", "values": [{"measurement": "enhancement of apoptosis", "value": 353, "unit": "%"}]}
